Test results from patent publication US6737383B1, “Herbicidal oxadiazolidines” (priority 1999, dated 2004).

Experiments:
purple nutsedge = test: Test B pre/postemergence purple nutsedge; type: in vivo, Cyperus rotundus
How it was run: (§1)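 Test chemicals in a non-phytotoxic solvent mixture with surfactant were sprayed preemergence onto planted seeds and postemergence onto plants 2 to 18 cm tall (1- to 4-leaf stage). After twelve to sixteen days in a greenhouse, injury was visually rated against untreated controls from 0 (no effect) to 10 (complete control).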

crabgrass = test: Test B pre/postemergence crabgrass; type: in vivo, Digitaria sanguinalis
How it was run: as §1

rice = test: Test B flood test rice; type: in vivo, Oryza sativa; conditions: Pre-emergence
How it was run: (§2)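 Each value is a visual injury score relative to controls, with 10 meaning complete control and 0 no effect. Evaluation took place twelve to sixteen days after the 2-leaf-stage plants were treated and kept in the greenhouse.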

velvetleaf = test: Test B pre/postemergence velvetleaf; type: in vivo, Abutilon theophrasti
How it was run: as §1

blackgrass = test: Test B pre/postemergence blackgrass; type: in vivo, Alopecurus myosuroides
How it was run: as §1

surinam grass = test: Test B pre/postemergence surinam grass; type: in vivo, Brachiaria decumbens
How it was run: as §1

bamyardgrass = test: Test B flood test barnyardgrass; type: in vivo, Echinochloa crus-galli; conditions: Pre-emergence
How it was run: as §2

cocklebur = test: Test B pre/postemergence cocklebur; type: in vivo, Xanthium strumarium
How it was run: as §1

pigweed = test: Test B pre/postemergence pigweed; type: in vivo, Amaranthus retroflexus
How it was run: as §1

smallflower flatsedge = test: Test B flood test smallflower flatsedge; type: in vivo, Cyperus difformis; conditions: Pre-emergence
How it was run: as §2

soybean = test: Test B pre/postemergence soybean; type: in vivo, Glycine max
How it was run: as §1

sugar beet = test: Test B pre/postemergence sugar beet; type: in vivo, Beta vulgaris
How it was run: as §1

bedstraw = test: Test B pre/postemergence bedstraw; type: in vivo, Galium aparine
How it was run: as §1

giant foxtail = test: Test B pre/postemergence giant foxtail; type: in vivo, Setaria faberii
How it was run: as §1

wild oat = test: Test B pre/postemergence wild oat; type: in vivo, Avena fatua
How it was run: as §1

corn = test: Test B pre/postemergence corn; type: in vivo, Zea mays
How it was run: as §1

[1] = Preemergence, Rate 62 g/ha, scale of 0 to 10 where 0 is no effect and 10 is complete control
[2] = Preemergence, Rate 250 g/ha, scale of 0 to 10 where 0 is no effect and 10 is complete control
[3] = Preemergence, Rate 500 g/ha, scale of 0 to 10 where 0 is no effect and 10 is complete control
[4] = Rate 62 g/ha, Postemergence, scale 0 to 10 (0 no effect, 10 complete control)
[5] = Rate 125 g/ha, Postemergence, scale of 0 to 10 where 0 is no effect and 10 is complete control
[6] = Rate 250 g/ha, Postemergence, scale of 0 to 10 where 0 is no effect and 10 is complete control
[7] = Rate 1000 g/ha, scale 0 to 10 (0 no effect, 10 complete control)
[8] = Rate 125 g/ha, flood test species, scale 0 to 10 where 0 is no effect and 10 is complete control
[9] = Rate 250 g/ha, flood-test species, scale 0 to 10, 0 is no effect, 10 is complete control
[10] = Rate 500 g/ha, flood test species, scale 0 to 10 (0 no effect, 10 complete control)
[11] = Rate 500 g/ha, Postemergence, scale 0 to 10, 0 no effect, 10 complete control

## CCN(C(=O)n1oc(=O)n(C2CCCCC2)c1=O)C1CCCCC1 [Compound 308]
Purple nutsedge; [1]
  Nutsedge plant response rating: 0
Purple nutsedge; Preemergence, Rate 125 g/ha
  Nutsedge plant response rating (0 to 10 scale): 0
Purple nutsedge; [2]
  Nutsedge plant response rating: 0
Purple nutsedge; [3]
  Nutsedge plant response rating: 0
Purple nutsedge; [4]
  Nutsedge plant response rating: 0
Purple nutsedge; [5]
  Nutsedge plant response rating: 0
Purple nutsedge; [6]
  Plant response rating, Nutsedge: 0
crabgrass; [1]
  Crabgrass plant response rating: 0
crabgrass; Preemergence, Rate 125 g/ha
  Crabgrass plant response rating (0 to 10 scale): 0
crabgrass; [2]
  Crabgrass plant response rating: 0
crabgrass; [3]
  Crabgrass plant response rating: 0
crabgrass; [4]
  Crabgrass plant response rating: 0
crabgrass; [5]
  Crabgrass plant response rating: 0
crabgrass; [6]
  Plant response rating, Crabgrass: 0
rice; [7]
  Rice plant response rating: 0
rice; [8]
  Rice plant response rating: 0
rice; [9]
  Rice plant response rating: 0
rice; [10]
  Rice plant response rating: 0
velvetleaf; [1]
  Velvetleaf plant response rating: 0
velvetleaf; Preemergence, Rate 125 g/ha
  Velvetleaf plant response rating (0 to 10 scale): 0
velvetleaf; [2]
  Velvetleaf plant response rating: 0
velvetleaf; [3]
  Velvetleaf plant response rating: 0
velvetleaf; [4]
  Velvetleaf plant response rating: 0
velvetleaf; [5]
  Velvetleaf plant response rating: 0
velvetleaf; [6]
  Plant response rating, Velvetleaf: 0
blackgrass; [1]
  Blackgrass plant response rating: 0
blackgrass; Preemergence, Rate 125 g/ha
  Blackgrass plant response rating (0 to 10 scale): 0
blackgrass; [2]
  Blackgrass plant response rating: 0
blackgrass; [3]
  Blackgrass plant response rating: 0
blackgrass; [4]
  Blackgrass plant response rating: 0
blackgrass; [5]
  Blackgrass plant response rating: 0
blackgrass; [6]
  Plant response rating, Blackgrass: 0
blackgrass; [11]
  Blackgrass plant response rating: 0
Surinam grass; [1]
  B. signalgrass plant response rating: 0
Surinam grass; Preemergence, Rate 125 g/ha
  B. signalgrass plant response rating (0 to 10 scale, 0 is no effect, 10 is complete control): 0
Surinam grass; [2]
  B. signalgrass plant response rating: 0
Surinam grass; [3]
  B. signalgrass plant response rating: 0
Surinam grass; [4]
  B. signalgrass plant response rating: 0
Surinam grass; [5]
  B. signalgrass plant response rating: 0
Surinam grass; [6]
  Plant response rating, B. signalgrass: 0
Surinam grass; [11]
  B. signalgrass plant response rating: 0
bamyardgrass; [7]
  Barnyardgrass plant response rating: 0
bamyardgrass; [8]
  Barnyardgrass plant response rating: 0
bamyardgrass; [9]
  Barnyardgrass plant response rating: 0
bamyardgrass; [10]
  Barnyardgrass plant response rating: 0
cocklebur; [1]
  Cocklebur plant response rating: 0
cocklebur; Preemergence, Rate 125 g/ha
  Cocklebur plant response rating (0 to 10 scale): 0
cocklebur; [2]
  Cocklebur plant response rating: 0
cocklebur; [3]
  Cocklebur plant response rating: 0
cocklebur; [4]
  Cocklebur plant response rating: 0
cocklebur; [5]
  Cocklebur plant response rating: 0
cocklebur; [6]
  Plant response rating, Cocklebur: 0
cocklebur; [11]
  Cocklebur plant response rating: 0
pigweed; [1]
  Redroot pigweed plant response rating: 0
pigweed; Preemergence, Rate 125 g/ha
  Redroot pigweed plant response rating (0 to 10 scale): 0
pigweed; [2]
  Redroot pigweed plant response rating: 0
pigweed; [3]
  Redroot pigweed plant response rating: 0
pigweed; [4]
  Redroot pigweed plant response rating: 0
pigweed; [5]
  Redroot pigweed plant response rating: 0
pigweed; [6]
  Plant response rating, Redroot pigweed: 0
Smallflower flatsedge; [7]
  S. Flatsedge plant response rating: 0
Smallflower flatsedge; [8]
  S. Flatsedge plant response rating: 0
Smallflower flatsedge; [9]
  S. Flatsedge plant response rating: 0
Smallflower flatsedge; [10]
  S. Flatsedge plant response rating: 0
soybean; [1]
  Soybean plant response rating: 0
soybean; Preemergence, Rate 125 g/ha
  Soybean plant response rating (0 to 10 scale): 0
soybean; [2]
  Soybean plant response rating: 0
soybean; [3]
  Soybean plant response rating: 0
soybean; [4]
  Soybean plant response rating: 1
soybean; [5]
  Soybean plant response rating: 1
soybean; [6]
  Plant response rating, Soybean: 1
Sugar beet; [1]
  Sugarbeets plant response rating: 0
Sugar beet; Preemergence, Rate 125 g/ha
  Sugarbeets plant response rating (0 to 10 scale): 0
Sugar beet; [2]
  Sugarbeets plant response rating: 0
Sugar beet; [3]
  Sugarbeets plant response rating: 0
Sugar beet; [4]
  Sugarbeets plant response rating: 0
Sugar beet; [5]
  Sugarbeets plant response rating: 0
Sugar beet; [6]
  Plant response rating, Sugarbeets: 0
bedstraw; [1]
  Bedstraw plant response rating: 0
bedstraw; Preemergence, Rate 125 g/ha
  Bedstraw plant response rating (0 to 10 scale): 0
bedstraw; [2]
  Bedstraw plant response rating: 0
bedstraw; [3]
  Bedstraw plant response rating: 0
bedstraw; [4]
  Bedstraw plant response rating: 0
bedstraw; [5]
  Bedstraw plant response rating: 0
bedstraw; [6]
  Plant response rating, Bedstraw: 0
bedstraw; [11]
  Bedstraw plant response rating: 0
Giant foxtail; [1]
  Giant foxtail plant response rating: 0
Giant foxtail; Preemergence, Rate 125 g/ha
  Giant foxtail plant response rating (0 to 10 scale): 0
Giant foxtail; [2]
  Giant foxtail plant response rating: 0
Giant foxtail; [3]
  Giant foxtail plant response rating: 0
Giant foxtail; [4]
  Giant foxtail plant response rating: 0
Giant foxtail; [5]
  Giant foxtail plant response rating: 0
Giant foxtail; [6]
  Plant response rating, Giant foxtail: 0
Wild oat; [1]
  Wild oats plant response rating: 0
Wild oat; Preemergence, Rate 125 g/ha
  Wild oats plant response rating (0 to 10 scale): 0
Wild oat; [2]
  Wild oats plant response rating: 0
Wild oat; [3]
  Wild oats plant response rating: 0
Wild oat; [4]
  Wild oats plant response rating: 0
Wild oat; [5]
  Wild oats plant response rating: 0
Wild oat; [6]
  Plant response rating, Wild oats: 0
corn; [1]
  Corn plant response rating: 0
corn; Preemergence, Rate 125 g/ha
  Corn plant response rating (0 to 10 scale): 0
corn; [2]
  Corn plant response rating: 0
corn; [3]
  Corn plant response rating: 0
corn; [4]
  Corn plant response rating: 0
corn; [5]
  Corn plant response rating: 0
corn; [6]
  Plant response rating, Corn: 0
corn; [11]
  Corn plant response rating: 0
